# Patent US9133204B2, “5-membered heterocyclic amides and related compounds” (H. Lundbeck A/S, priority 2007, dated 2015)
# Biological target: T1, P2X7 receptor (Homo sapiens, UniProt Q99572)
# T1 construct: host or cells: SH-SY5Y
# T1 sequence (Q99572 1-595): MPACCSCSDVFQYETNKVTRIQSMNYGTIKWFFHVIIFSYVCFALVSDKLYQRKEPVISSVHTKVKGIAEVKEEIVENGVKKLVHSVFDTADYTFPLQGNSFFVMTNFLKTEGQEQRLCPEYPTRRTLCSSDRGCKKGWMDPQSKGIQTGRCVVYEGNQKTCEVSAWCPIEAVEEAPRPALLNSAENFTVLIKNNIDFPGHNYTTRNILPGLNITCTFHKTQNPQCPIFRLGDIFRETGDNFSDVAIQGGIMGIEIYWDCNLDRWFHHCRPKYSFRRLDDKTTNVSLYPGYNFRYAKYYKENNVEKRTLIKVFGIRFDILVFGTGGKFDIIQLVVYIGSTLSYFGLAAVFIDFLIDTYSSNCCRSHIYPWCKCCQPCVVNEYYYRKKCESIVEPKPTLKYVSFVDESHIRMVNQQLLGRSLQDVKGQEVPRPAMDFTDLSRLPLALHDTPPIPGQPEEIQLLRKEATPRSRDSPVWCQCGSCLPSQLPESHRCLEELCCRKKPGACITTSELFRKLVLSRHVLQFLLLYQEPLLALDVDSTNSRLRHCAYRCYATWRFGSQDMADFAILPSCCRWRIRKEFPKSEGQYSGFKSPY
# Test: High throughput P2X7 calcium mobilization assay (Example 4A)
# Assay type: cell-based
# Conditions: SH-SY5Y cells; 50% decrease in fluorescence response of cells exposed to 80 μM BzATP; Table I
# Method in brief: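 SH-SY5Y cells loaded with 2.3 μM Fluo-4 AM for 1 h at 37 °C, then preincubated 1 h at room temperature with test compound (final 1–2500 nM) in low-sodium sucrose buffer, pH 7.4. Antagonism measured against 80 μM BzATP (about EC50) as peak FLIPR calcium fluorescence over 2 min, corrected by no-agonist background.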
row,IC50 [nM],SMILES
1,≤ 2000,"Cc1cnc(-n2cc(C(=O)NCC3(c4ccc(C(F)(F)F)cc4)CCCCC3)c(C(F)(F)F)n2)nc1N [Compound 172, 1-(4-amino-5-methylpyrimidin-2-yl)-3-(trifluoromethyl)-N-({1-[4-(trifluoromethyl)phenyl]cyclohexyl}methyl)-1H-pyrazole-4-carboxamide]"
2,≤ 2000,"Cc1nn(-c2nccc(N)n2)cc1C(=O)NCC(CC(C)C)c1ccc(C(F)(F)F)cc1 (stereo not drawn) [Compound 173, 1-(4-aminopyrimidin-2-yl)-3-methyl-N-{4-methyl-2-[4-(trifluoromethyl)phenyl]pentyl}-1H-pyrazole-4-carboxamide]"
3,≤ 2000,"Cc1nn(-c2cnccn2)cc1C(=O)NCC(CC(C)C)c1ccc(C(F)(F)F)cc1 (stereo not drawn) [Compound 174, 3-methyl-N-{4-methyl-2-[4-(trifluoromethyl)phenyl]pentyl}-1-pyrazin-2-yl-1H-pyrazole-4-carboxamide]"
4,≤ 2000,"Cc1nn(-c2nccc(N)n2)cc1C(=O)NCC1(c2ccc(C(F)(F)F)cc2)CCCCC1 [Compound 175, 1-(4-aminopyrimidin-2-yl)-3-methyl-N-({1-[4-(trifluoromethyl)phenyl]cyclohexyl]methyl)-1H-pyrazole-4-carboxamide]"
5,≤ 2000,"Cc1cnc(-n2cc(C(=O)NCC(CC(C)C)c3ccc(C(F)(F)F)cc3)c(C(C)(C)C)n2)nc1N (stereo not drawn) [Compound 176, 1-(4-amino-5-methylpyrimidin-2-yl)-3-tert-butyl-N-{4-methyl-2-[4-(trifluoromethyl)phenyl]pentyl}-1H-pyrazole-4-carboxamide]"
6,≤ 2000,"Cc1cnc(-n2cc(C(=O)NCC3(c4ccc(C(F)(F)F)cc4)CCCCC3)c(C(C)(C)C)n2)nc1N [Compound 177, 1-(4-amino-5-methylpyrimidin-2-yl)-3-tert-butyl-N-({1-[4-(trifluoromethyl)phenyl]cyclohexyl]methyl)-1H-pyrazole-4-carboxamide]"
7,≤ 2000,"Cc1nn(-c2ncccn2)cc1C(=O)NCC(CC(C)C)c1ccc(C(F)(F)F)cc1 (stereo not drawn) [Compound 178, 3-methyl-N-{4-methyl-2-[4-(trifluoromethyl)phenyl]pentyl}-1-pyrimidin-2-yl-1H-pyrazole-4-carboxamide]"
8,≤ 2000,"Cc1nn(-c2nccnc2N)cc1C(=O)NCC(CC(C)C)c1ccc(C(F)(F)F)cc1 (stereo not drawn) [Compound 179, 1-(3-aminopyrazin-2-yl)-3-methyl-N-{4-methyl-2-[4-(trifluoromethyl)phenyl]pentyl}-1H-pyrazole-4-carboxamide]"
9,≤ 2000,"Cc1nn(-c2cncc(N)n2)cc1C(=O)NCC(CC(C)C)c1ccc(C(F)(F)F)cc1 (stereo not drawn) [Compound 180, 1-(6-aminopyrazin-2-yl)-3-methyl-N-{4-methyl-2-[4-(trifluoromethyl)phenyl]pentyl}-1H-pyrazole-4-carboxamide]"
10,≤ 2000,"Cc1nn(-c2ncccn2)cc1C(=O)NCC1(c2ccc(C(F)(F)F)cc2)CCCCC1 [Compound 181, 3-methyl-1-pyrimidin-2-yl-N-({1-[4-(trifluoromethyl)phenyl]cyclohexyl]methyl)-1H-pyrazole-4-carboxamide]"
11,≤ 2000,"Cc1nn(-c2nccnc2N)cc1C(=O)NCC1(c2ccc(C(F)(F)F)cc2)CCCCC1 [Compound 182, 1-(3-aminopyrazin-2-yl)-3-methyl-N-({1-[4-(trifluoromethyl)phenyl]cyclohexyl}methyl)-1H-pyrazole-4-carboxamide]"
12,≤ 2000,"Cc1nn(-c2cncc(N)n2)cc1C(=O)NCC1(c2ccc(C(F)(F)F)cc2)CCCCC1 [Compound 183, 1-(6-aminopyrazin-2-yl)-3-methyl-N-({1-[4-(trifluoromethyl)phenyl]cyclohexyl}methyl)-1H-pyrazole-4-carboxamide]"
13,≤ 2000,"Cc1nn(-c2cnccn2)cc1C(=O)NCC1(c2ccc(C(F)(F)F)cc2)CCCCC1 [Compound 184, 3-methyl-1-pyrazin-2-yl-N-({1-[4-(trifluoromethyl)phenyl]cyclohexyl}methyl)-1H-pyrazole-4-carboxamide]"
14,≤ 2000,"COc1ccnc(-n2cc(C(=O)NCC3(c4cccnc4)CCCCC3)c(C(F)(F)F)n2)n1 [Compound 185, 1-(4-methoxypyrimidin-2-yl)-N-[(1-pyridin-3-ylcyclohexyl)methyl]-3-(trifluoromethyl)-1H-pyrazole-4-carboxamide]"
15,≤ 2000,"Cc1nccnc1-n1cc(C(=O)NCC2(c3cccnc3)CCCCC2)c(C(F)(F)F)n1 [Compound 186, 1-(3-methylpyrazin-2-yl)-N-[(1-pyridin-3-ylcyclohexyl)methyl]-3-(trifluoromethyl)-1H-pyrazole-4-carboxamide]"
16,≤ 2000,"Cc1cncc(-n2cc(C(=O)NCC3(c4cccnc4)CCCCC3)c(C(F)(F)F)n2)n1 [Compound 187, 1-(6-methylpyrazin-2-yl)-N-[(1-pyridin-3-ylcyclohexyl)methyl]-3-(trifluoromethyl)-1H-pyrazole-4-carboxamide]"
17,≤ 2000,"CCc1nccnc1-n1cc(C(=O)NCC2(c3cccnc3)CCCCC2)c(C(F)(F)F)n1 [Compound 188, 1-(3-ethylpyrazin-2-yl)-N-[(1-pyridin-3-ylcyclohexyl)methyl]-3-(trifluoromethyl)-1H-pyrazole-4-carboxamide]"
18,≤ 2000,"Cc1cnc(-n2cc(C(=O)NCC3(c4ccc(F)cc4)CCCCC3)c(C(F)(F)F)n2)nc1N [Compound 190, 1-(4-amino-5-methylpyrimidin-2-yl)-N-{[1-(4-fluorophenyl)cyclohexyl]methyl}-3-(trifluoromethyl)-1H-pyrazole-4-carboxamide]"
19,≤ 2000,"COc1cnc(-n2cc(C(=O)NCC3(c4cccnc4)CCCCC3)c(C(F)(F)F)n2)nc1 [Compound 191, 1-(5-methoxypyrimidin-2-yl)-N-[(1-pyridin-3-ylcyclohexyl)methyl]-3-(trifluoromethyl)-1H-pyrazole-4-carboxamide]"
20,≤ 2000,"O=C(NCC1(c2cccnc2)CCCCC1)c1cn(-c2ncc(Cl)cn2)nc1C(F)(F)F [Compound 192, 1-(5-chloropyrimidin-2-yl)-N-[(1-pyridin-3-ylcyclohexyl)methyl]-3-(trifluoromethyl)-1H-pyrazole-4-carboxamide]"
21,≤ 2000,"O=C(NCCC12CC3CC(CC(C3)C1)C2)c1cn(-c2ncccn2)nc1C(F)(F)F [Compound 193, N-(2-adamantan-1-ylethyl)-1-pyrimidin-2-yl-3-(trifluoromethyl)-1H-pyrazole-4-carboxamide]"
22,≤ 2000,"CC1(C)C2CC[C@@H](CNC(=O)c3cn(-c4ncccn4)nc3C(F)(F)F)C1C2 (stereo partly drawn) [Compound 194, N-{[(2R)-6,6-dimethylbicyclo[3.1.1]hept-2-yl]methyl}-1-pyrimidin-2-yl-3-(trifluoromethyl)-1H-pyrazole-4-carboxamide]"
23,≤ 2000,"O=C(NCC1(c2ccc(Cl)cc2)CCCCC1)c1cn(-c2ncccn2)nc1C(F)(F)F [Compound 195, N-{[1-(4-chlorophenyl)cyclohexyl]methyl}-1-pyrimidin-2-yl-3-(trifluoromethyl)-1H-pyrazole-4-carboxamide]"
24,≤ 2000,"O=C(NCC1(c2ccc(C(F)(F)F)cc2)CCCCC1)c1cn(-c2ncccn2)nc1C(F)(F)F [Compound 196, 1-pyrimidin-2-yl-3-(trifluoromethyl)-N-({1-[4-(trifluoromethyl)phenyl]cyclohexyl]methyl)-1H-pyrazole-4-carboxamide]"
25,≤ 2000,"O=C(NCC1(c2ccc(Cl)cc2)CCOCC1)c1cn(-c2ncccn2)nc1C(F)(F)F [Compound 197, N-{[4-(4-chlorophenyl)tetrahydro-2H-pyran-4-yl]methyl}-1-pyrimidin-2-yl-3-(trifluoromethyl)-1H-pyrazole-4-carboxamide]"
26,≤ 2000,"O=C(NCC1(N2CCOCC2)CCCCC1)c1cn(-c2ncccn2)nc1C(F)(F)F [Compound 198, N-[(1-morpholin-4-ylcyclohexyl)methyl]-1-pyrimidin-2-yl-3-(trifluoromethyl)-1H-pyrazole-4-carboxamide]"
27,≤ 2000,"COc1ccc(C2(CNC(=O)c3cn(-c4ncccn4)nc3C(F)(F)F)CCCCC2)cc1 [Compound 199, N-{[1-(4-methoxyphenyl)cyclohexyl]methyl}-1-pyrimidin-2-yl-3-(trifluoromethyl)-1H-pyrazole-4-carboxamide]"
28,≤ 2000,"CC(C)CC(CNC(=O)c1cn(-c2ncccn2)nc1C(F)(F)F)c1ccc(C(F)(F)F)cc1 (stereo not drawn) [Compound 200, N-{4-methyl-2-[4-(trifluoromethyl)phenyl]pentyl}-1-pyrimidin-2-yl-3-(trifluoromethyl)-1H-pyrazole-4-carboxamide]"
29,≤ 2000,"CCCC(CNC(=O)c1cn(-c2ncccn2)nc1C(F)(F)F)c1ccc(Cl)cc1 (stereo not drawn) [Compound 201, N-[2-(4-chlorophenyl)pentyl]-1-pyrimidin-2-yl-3-(trifluoromethyl)-1H-pyrazole-4-carboxamide]"
30,≤ 2000,"CC(CNC(=O)c1cn(-c2ncccn2)nc1C(F)(F)F)c1ccc(Cl)cc1 (stereo not drawn) [Compound 202, N-[2-(4-chlorophenyl)propyl]-1-pyrimidin-2-yl-3-(trifluoromethyl)-1H-pyrazole-4-carboxamide]"
